From US9309276B2, “Synthetic lipid A derivative” (University of Georgia Research Foundation, Inc., priority 2007, dated 2016)

System: RAW 264.7 γNO(−) cells
Test: Cytokine induction and ELISAs in mouse macrophages (RAW 264.7 γNO(−) cells)
Format: cell-based
Settings: for secretion of cytokines (TNF-α, IL-6, IP-10, IFN-β and IL-1β): Example III, data not shown; for Cytokine top value of dose-response curve, pro Il-1β: cell lysates; for Cytokine top value of dose-response curve, pro Il-1β / TNF-α and IFN-β production, dose response (in words) / Cytokine top value of dose-response curve, IFN-β / Cytokine top value of dose-response curve, IL-6 / Cytokine top value of dose-response curve, IP-10 / Cytokine top value of dose-response curve, RANTES / Cytokine top value of dose-response curve, TNF-α: 5.5 h; for Cytokine top value of dose-response curve, pro Il-1β / Cytokine top value of dose-response curve, IFN-β / Cytokine top value of dose-response curve, IL-6 / Cytokine top value of dose-response curve, IP-10 / Cytokine top value of dose-response curve, RANTES / Cytokine top value of dose-response curve, TNF-α: best-fit value ± std. error; for TNF-α and IFN-β production, dose response (in words) / Cytokine top value of dose-response curve, IFN-β / Cytokine top value of dose-response curve, IL-6 / Cytokine top value of dose-response curve, IP-10 / Cytokine top value of dose-response curve, RANTES / Cytokine top value of dose-response curve, TNF-α / Cytokine top value of dose-response curve, IL-1β: supernatant; for TNF-α and IFN-β production, dose response (in words): wide range of concentrations; for Cytokine top value of dose-response curve, IL-1β: 24 h, best-fit value ± std. error (# plateau not reached for LPS)
Procedure: Mouse macrophages (RAW 264.7 γNO(−) cells) were exposed over a wide range of concentrations to compounds 1-5 and E. coli 055:B5 LPS. After 5.5 hours, the supernatants were harvested and examined for mouse TNF-α and IFN-β using a commercial and in-house developed capture ELISA assay, respectively. Potencies (EC50, concentration producing 50% activity) and efficacies (maximal level of production) were determined by fitting the dose-response curves to a logistic equation using PRISM software. […] It has also been shown that removal of the KDO moieties by mild acidic treatment reduces cellular responses (Demchenko et al., J. Am. Chem. Soc. 2003, 125, 6103-6112).
Having established the EC50 values of TNF-α and IFN-β secretion by compounds 1-5 and E. coli 055:B5 LPS, attention was focused on IL-6, IP-10, RANTES, and IL-1β responses. Thus, the previously harvested supernatants were analyzed for these cytokines using capture ELISA assays (FIG. 4, Table 1). For IL-6, IP-10, and RANTES, a short incubation time of 5.5 hrs was sufficient for detection. To achieve significant IL-1β secretion, the incubation had to be extended to 24 hrs. […] IL-1β is expressed as a pro-protein (pro-IL-1β), which is cleaved by caspase-1 into its active form (IL-1β), which is then secreted. Indeed, analyzing IL-1β of the cell lysates by Western blotting confirmed that it was present as a pro-protein (data not shown). TNF-α is also produced as a pro-protein, which is proteolitically cleaved by tumor necrosis factor-α converting enzyme (TACE) (Skotnicki and Levin, Annu. Rep. Med. Chem. 2003, 38, 153-162; Duffy et al., Thromb. Haemost. 2003, 89, 622-631). […] Furthermore, for each of the synthetic compounds and LPS, EC50 values of secreted TNF-α and intracellular pro-IL-1β were very similar. However, EC50 values for secreted mature IL-1β were larger by as much as 100-fold.
RAW 264.7 γNO(−) cells were plated on the day of the exposure assay as 2×10^5 cells/well in 96-well tissue culture plates (Nunc). Cells were incubated with different stimuli for 5.5 and 24 hours in replicates of five. Culture supernatants were then collected, pooled, and stored frozen (−80° C.) until assayed for cytokine production. After removal of the supernatant, cells were lysed by adding PBS containing Tween 20 (0.01%) and BSA (1%) in the same volume as that of the supernatant and sonicating for 5 min. The cell lysates were pooled and stored frozen (−80° C.) until assayed for cytokine production.
All cytokine ELISAs were performed in 96-well MaxiSorp plates (Nunc). Cytokine DuoSet ELISA Development Kits (R&D Systems) were used for the cytokine quantification of mouse TNF-α, IL-6, IP-10, RANTES, and IL-1β according to the manufacturer's instructions. The absorbance was measured at 450 nm with wavelength correction set to 540 nm using a microplate reader (BMG Labtech). Concentrations of IFN-β in culture supernatants were determined as follows. ELISA MaxiSorp plates were coated with rabbit polyclonal antibody against mouse IFN-β (PBL Biomedical Laboratories). IFN-β in standards and samples was allowed to bind to the immobilized antibody. Rat anti-mouse IFN-β antibody (USBiological) was then added, producing an antibody-antigen-antibody “sandwich”. Next, horseradish peroxidase (HRP) conjugated goat anti-rat IgG (H+L) antibody (Pierce) and a chromogenic substrate for HRP 3,3′,5,5′-tetramethylbenzidine (TMB; Pierce) were added. After the reaction was stopped, the absorbance was measured at 450 nm with wavelength correction set to 540 nm. All cytokine values are presented as the means±SD of triplicate measurements, with each experiment being repeated three times.
Concentration-response data were analyzed using nonlinear least-squares curve fitting in Prism (GraphPad Software, Inc.). […] The Hillslope was set at 1 to be able to compare the EC50 values of the different inducers. […]

CCCCCCCCCCCCCCCC(=O)O[C@H](CCCCCCCCCCCC(C)C)CC(=O)N[C@H]1[C@H](OC[C@H]2O[C@H](OP(=O)(O)O)[C@H](NC(=O)C[C@H](O)CCCCCCCCCCCC(C)C)[C@@H](OC(=O)C[C@H](O)CCCCCCCCCCCCC)[C@@H]2O)O[C@H](CO)[C@@H](O)[C@@H]1O [Compound 103, 6-O-{2-Deoxy-2-[(R)-3-hexadecanoyloxy-15-methyl-hexadecanoylamino]-β-D-glucopyranosyl}-3-O—[(R)-3-hydroxy-hexadecanoyl]-2-deoxy-2-[(R)-3-hydroxy-15-methyl-hexadecanoylamino]-α-D-glucopyranose 1-phosphate]
secretion of cytokines (TNF-α, IL-6, IP-10, IFN-β and IL-1β): did not lead to secretion of cytokines

CCCCCCCCCCCCCCCC(=O)O[C@H](CCCCCCCCCCCC(C)C)CC(=O)N[C@H]1[C@H](OC[C@H]2O[C@H](OP(=O)(O)O)[C@H](NC(=O)C[C@H](O)CCCCCCCCCCCC(C)C)[C@@H](O)[C@@H]2O)O[C@H](CO)[C@@H](O)[C@@H]1ONC(=O)C[C@H](O)CCCCCCCCCC(C)C [Compound 104, 6-O-{2-Deoxy-2-[(R)-3-hexadecanoyloxy-15-methyl-hexadecanoylamino]-3-O—[(R)-3-hydroxy-13-methyl-tetradecanoylamino]-β-D-glucopyranosyl}-2-deoxy-2-[(R)-3-hydroxy-15-methyl-hexadecanoylamino]-α-D-glucopyranose 1-phosphate]
secretion of cytokines (TNF-α, IL-6, IP-10, IFN-β and IL-1β): did not lead to secretion of cytokines

CCCCCCCCCCCCCC(=O)OC(CCCCCCCCCCC)CC(=O)OC1C(NC(=O)CC(CCCCCCCCCCC)OC(=O)CCCCCCCCCCC)C(OCC2OC(OP(=O)(O)O)C(NC(=O)CC(O)CCCCCCCCCCC)C(OC(=O)CC(O)CCCCCCCCCCC)C2O)OC(CO)C1OP(=O)(O)O [Lipid A 1, 6-O-{2-Deoxy-2-[(R)-3-dodecanoyloxy-tetradecanoylamino]-3-O—[(R)-3-tetradecanoyloxy-tetradecanoyl]-β-D-glucopyranosyl}-2-deoxy-3-O—[(R)-3-hydroxy-tetradecanoyl]-2-[(R)-3-hydroxy-tetradecanoylamino]-α-D-glucopyranose 1,4′-bisphosphate]
Cytokine top value of dose-response curve, pro Il-1β: 565 ± 25 pg/mL
TNF-α and IFN-β production, dose response (in words): clear dose response curves
Cytokine top value of dose-response curve, IFN-β: 724 ± 25 pg/mL
Cytokine top value of dose-response curve, IL-6: 249 ± 29 pg/mL
Cytokine top value of dose-response curve, IP-10: 6778 ± 214 pg/mL
Cytokine top value of dose-response curve, RANTES: 5531 ± 214 pg/mL
Cytokine top value of dose-response curve, TNF-α: 3924 ± 179 pg/mL
Cytokine top value of dose-response curve, IL-1β: 92 ± 2 pg/mL

CCCCCCCCCCCC(=O)OC(CCCCCCCCCCC)CC(=O)NC1C(OCC2OC(OP(=O)(O)O)C(NC(=O)CC(O)CCCCCCCCCCC)C(OC(=O)CC(O)CCCCCCCCC)C2O)OC(CO)C(OP(=O)(O)O)C1OC(=O)CC(CCCCCCCCC)OC(=O)CCCCCCCCCCC [Lipid A 2, 6-O-{2-Deoxy-3-O—[(R)-3-dodecanoyloxy-dodecanoyl]-2-[(R)-3-dodecanoyloxy-tetradecanoylamino]-β-D-glucopyranosyl}-2-deoxy-3-O—[(R)-3-hydroxy-dodecanoyl]-2-[(R)-3-hydroxy-tetredecanoylamino]-α-D-glucopyranose 1,4′-bisphosphate]
Cytokine top value of dose-response curve, pro Il-1β: 587 ± 87 pg/mL
TNF-α and IFN-β production, dose response (in words): clear dose response curves
Cytokine top value of dose-response curve, IFN-β: 654 ± 37 pg/mL
Cytokine top value of dose-response curve, IL-6: 299 ± 42 pg/mL
Cytokine top value of dose-response curve, IP-10: 7207 ± 277 pg/mL
Cytokine top value of dose-response curve, RANTES: 6851 ± 216 pg/mL
Cytokine top value of dose-response curve, TNF-α: 4223 ± 329 pg/mL
Cytokine top value of dose-response curve, IL-1β: 82 ± 2 pg/mL

CCCCCCCCCCCCCCCC(=O)OC(CCCCCCCCCCC)CC(=O)NC1C(OP(=O)(O)O)OC(COC2OC(CO)C(OP(=O)(O)O)C(OC(=O)CC(CCCCCCCCC)OC(=O)CCCCCCCCCCC)C2NC(=O)CC(CCCCCCCCCCC)OC(=O)CCCCCCCCCCC)C(O)C1OC(=O)CC(O)CCCCCCCCC [Lipid A 4, 6-O-{2-Deoxy-3-O—[(R)-3-dodecanoyloxy-dodecanoyl]-2-[(R)-3-dodecanoyloxy-tetradecanoylamino]-β-D-glucopyranosyl}-2-deoxy-2-[(R)-3-hexadecanoyloxy-tetredecanoylamino]-3-O—[(R)-3-hydroxy-dodecanoyl]-α-D-glucopyranose 1,4′-bisphosphate]
Cytokine top value of dose-response curve, pro Il-1β: 610 ± 35 pg/mL
TNF-α and IFN-β production, dose response (in words): clear dose response curves
Cytokine top value of dose-response curve, IFN-β: 710 ± 44 pg/mL
Cytokine top value of dose-response curve, IL-6: 233 ± 12 pg/mL
Cytokine top value of dose-response curve, IP-10: 7320 ± 415 pg/mL
Cytokine top value of dose-response curve, RANTES: 5360 ± 263 pg/mL
Cytokine top value of dose-response curve, TNF-α: 4178 ± 250 pg/mL
Cytokine top value of dose-response curve, IL-1β: 86 ± 4 pg/mL
